{
  "source": "ChEMBL document CHEMBL3885881",
  "about": "“DrugMatrix”",
  "species": "Rattus norvegicus",
  "assay": "DrugMatrix - Regimen: Daily Repeat",
  "type": "toxicity, organism-based, Sprague-Dawley",
  "set-up": "regimen Daily Repeat, gender Male, age 6-8 weeks",
  "settings": "in vivo, po, 0.0001 mg/kg, route oral GAVAGE, dose level Low, vehicle .5 % CMC; for ABSOLUTE BASOPHIL / ABSOLUTE EOSINOPHIL / ABSOLUTE LYMPHOCYTE / ABSOLUTE MONOCYTE / ABSOLUTE SEGMENTED NEUTROPHIL / BASOPHIL / EOSINOPHIL / ERYTHROCYTE COUNT / HEMATOCRIT / HEMOGLOBIN / LEUKOCYTE COUNT / LYMPHOCYTE / MEAN CORPUSCULAR HEMOGLOBIN / MEAN CORPUSCULAR HEMOGLOBIN CONCENTRATION / MEAN CORPUSCULAR VOLUME / MONOCYTE / NEUTROPHIL / NUCLEATED RED BLOOD CELLS / PLATELET COUNT: tissue Blood; for ALANINE AMINOTRANSFERASE / ALBUMIN / ALKALINE PHOSPHATASE / ASPARTATE AMINOTRANSFERASE / BLOOD UREA NITROGEN / CARBON DIOXIDE / CHLORIDE / CHOLESTEROL / CREATINE PHOSPHOKINASE / CREATININE / GLUCOSE / LACTATE DEHYDROGENASE / LIPASE / PHOSPHORUS / POTASSIUM / SODIUM / TOTAL BILIRUBIN / TOTAL PROTEIN / URIC ACID: tissue Plasma",
  "data": [
    {"smiles": "C=C1/C(=C\\C=C2/CCC[C@]3(C)[C@@H]([C@H](C)CCCC(C)C)CC[C@@H]23)C[C@@H](O)C[C@@H]1O", "note": "[ALFACALCIDOL]", "values": [
      {"measurement": "ABSOLUTE BASOPHIL", "setting": "72 h, time 3 day", "value": 0, "unit": "CELLS/uL"},
      {"measurement": "ABSOLUTE EOSINOPHIL", "setting": "72 h, time 3 day", "value": 140, "unit": "CELLS/uL"},
      {"measurement": "ABSOLUTE LYMPHOCYTE", "setting": "72 h, time 3 day", "value": 12178.67, "unit": "CELLS/uL"},
      {"measurement": "ABSOLUTE MONOCYTE", "setting": "72 h, time 3 day", "value": 352, "unit": "CELLS/uL"},
      {"measurement": "ABSOLUTE SEGMENTED NEUTROPHIL", "setting": "72 h, time 3 day", "value": 1262.67, "unit": "CELLS/uL"},
      {"measurement": "BASOPHIL", "setting": "72 h, time 3 day", "value": 0, "unit": "%"},
      {"measurement": "EOSINOPHIL", "setting": "72 h, time 3 day", "value": 1, "unit": "%"},
      {"measurement": "ERYTHROCYTE COUNT", "setting": "72 h, time 3 day", "value": 6.05, "unit": "x10E6/uL"},
      {"measurement": "HEMATOCRIT", "setting": "72 h, time 3 day", "value": 38.07, "unit": "%"},
      {"measurement": "HEMOGLOBIN", "setting": "72 h, time 3 day", "value": 14.23, "unit": "G/DL"},
      {"measurement": "LEUKOCYTE COUNT", "setting": "72 h, time 3 day", "value": 13.93, "unit": "x10E3/uL"},
      {"measurement": "LYMPHOCYTE", "setting": "72 h, time 3 day", "value": 87.33, "unit": "%"},
      {"measurement": "MEAN CORPUSCULAR HEMOGLOBIN", "setting": "72 h, time 3 day", "value": 23.6, "unit": "pg"},
      {"measurement": "MEAN CORPUSCULAR HEMOGLOBIN CONCENTRATION", "setting": "72 h, time 3 day", "value": 37.4, "unit": "G/DL"},
      {"measurement": "MEAN CORPUSCULAR VOLUME", "setting": "72 h, time 3 day", "value": 63.03, "unit": "fL"},
      {"measurement": "MONOCYTE", "setting": "72 h, time 3 day", "value": 2.67, "unit": "%"},
      {"measurement": "NEUTROPHIL", "setting": "72 h, time 3 day", "value": 9, "unit": "%"},
      {"measurement": "NUCLEATED RED BLOOD CELLS", "setting": "72 h, time 3 day", "value": "0.33 /100WBC"},
      {"measurement": "PLATELET COUNT", "setting": "72 h, time 3 day", "value": 1202.33, "unit": "x10E3/uL"},
      {"measurement": "ALANINE AMINOTRANSFERASE", "setting": "72 h, time 3 day", "value": 48.33, "unit": "u/L"},
      {"measurement": "ALBUMIN", "setting": "72 h, time 3 day", "value": 4.17, "unit": "G/DL"},
      {"measurement": "ALKALINE PHOSPHATASE", "setting": "72 h, time 3 day", "value": 299.33, "unit": "u/L"},
      {"measurement": "ASPARTATE AMINOTRANSFERASE", "setting": "72 h, time 3 day", "value": 81, "unit": "u/L"},
      {"measurement": "BLOOD UREA NITROGEN", "setting": "72 h, time 3 day", "value": 17, "unit": "mg/dL"},
      {"measurement": "CARBON DIOXIDE", "setting": "72 h, time 3 day", "value": 24.67, "unit": "mmol/L"},
      {"measurement": "CHLORIDE", "setting": "72 h, time 3 day", "value": 103.5, "unit": "MEQ/L"},
      {"measurement": "CHOLESTEROL", "setting": "72 h, time 3 day", "value": 65, "unit": "mg/dL"},
      {"measurement": "CREATINE PHOSPHOKINASE", "setting": "72 h, time 3 day", "value": 332, "unit": "u/L"},
      {"measurement": "CREATININE", "setting": "72 h, time 3 day", "value": 0.2, "unit": "mg/dL"},
      {"measurement": "GLUCOSE", "setting": "72 h, time 3 day", "value": 178.67, "unit": "mg/dL"},
      {"measurement": "LACTATE DEHYDROGENASE", "setting": "72 h, time 3 day", "value": 142.33, "unit": "u/L"},
      {"measurement": "LIPASE", "setting": "72 h, time 3 day", "value": 9.33, "unit": "u/L"},
      {"measurement": "PHOSPHORUS", "setting": "72 h, time 3 day", "value": 12.17, "unit": "mg/dL"},
      {"measurement": "POTASSIUM", "setting": "72 h, time 3 day", "value": 6.03, "unit": "MEQ/L"},
      {"measurement": "SODIUM", "setting": "72 h, time 3 day", "value": 146.55, "unit": "MEQ/L"},
      {"measurement": "TOTAL BILIRUBIN", "setting": "72 h, time 3 day", "value": 0.23, "unit": "mg/dL"},
      {"measurement": "TOTAL PROTEIN", "setting": "72 h, time 3 day", "value": 5.83, "unit": "G/DL"},
      {"measurement": "URIC ACID", "setting": "72 h, time 3 day", "value": 1.77, "unit": "mg/dL"},
      {"measurement": "ABSOLUTE BASOPHIL", "setting": "120 h, time 5 day", "value": 0, "unit": "CELLS/uL"},
      {"measurement": "ABSOLUTE EOSINOPHIL", "setting": "120 h, time 5 day", "value": 164, "unit": "CELLS/uL"},
      {"measurement": "ABSOLUTE LYMPHOCYTE", "setting": "120 h, time 5 day", "value": 10288.67, "unit": "CELLS/uL"},
      {"measurement": "ABSOLUTE MONOCYTE", "setting": "120 h, time 5 day", "value": 193, "unit": "CELLS/uL"},
      {"measurement": "ABSOLUTE SEGMENTED NEUTROPHIL", "setting": "120 h, time 5 day", "value": 1121, "unit": "CELLS/uL"},
      {"measurement": "BASOPHIL", "setting": "120 h, time 5 day", "value": 0, "unit": "%"},
      {"measurement": "EOSINOPHIL", "setting": "120 h, time 5 day", "value": 1.33, "unit": "%"},
      {"measurement": "ERYTHROCYTE COUNT", "setting": "120 h, time 5 day", "value": 5.95, "unit": "x10E6/uL"},
      {"measurement": "HEMATOCRIT", "setting": "120 h, time 5 day", "value": 36.97, "unit": "%"},
      {"measurement": "HEMOGLOBIN", "setting": "120 h, time 5 day", "value": 13.63, "unit": "G/DL"},
      {"measurement": "LEUKOCYTE COUNT", "setting": "120 h, time 5 day", "value": 11.77, "unit": "x10E3/uL"},
      {"measurement": "LYMPHOCYTE", "setting": "120 h, time 5 day", "value": 87.33, "unit": "%"},
      {"measurement": "MEAN CORPUSCULAR HEMOGLOBIN", "setting": "120 h, time 5 day", "value": 22.9, "unit": "pg"},
      {"measurement": "MEAN CORPUSCULAR HEMOGLOBIN CONCENTRATION", "setting": "120 h, time 5 day", "value": 36.9, "unit": "G/DL"},
      {"measurement": "MEAN CORPUSCULAR VOLUME", "setting": "120 h, time 5 day", "value": 62.07, "unit": "fL"},
      {"measurement": "MONOCYTE", "setting": "120 h, time 5 day", "value": 1.67, "unit": "%"},
      {"measurement": "NEUTROPHIL", "setting": "120 h, time 5 day", "value": 9.67, "unit": "%"},
      {"measurement": "NUCLEATED RED BLOOD CELLS", "setting": "120 h, time 5 day", "value": "0 /100WBC"},
      {"measurement": "PLATELET COUNT", "setting": "120 h, time 5 day", "value": 1179, "unit": "x10E3/uL"},
      {"measurement": "ALANINE AMINOTRANSFERASE", "setting": "120 h, time 5 day", "value": 40.33, "unit": "u/L"},
      {"measurement": "ALBUMIN", "setting": "120 h, time 5 day", "value": 4.23, "unit": "G/DL"},
      {"measurement": "ALKALINE PHOSPHATASE", "setting": "120 h, time 5 day", "value": 369.33, "unit": "u/L"},
      {"measurement": "ASPARTATE AMINOTRANSFERASE", "setting": "120 h, time 5 day", "value": 94.33, "unit": "u/L"},
      {"measurement": "BLOOD UREA NITROGEN", "setting": "120 h, time 5 day", "value": 21, "unit": "mg/dL"},
      {"measurement": "CARBON DIOXIDE", "setting": "120 h, time 5 day", "value": 26.67, "unit": "mmol/L"},
      {"measurement": "CHLORIDE", "setting": "120 h, time 5 day", "value": 105, "unit": "MEQ/L"},
      {"measurement": "CHOLESTEROL", "setting": "120 h, time 5 day", "value": 57.33, "unit": "mg/dL"},
      {"measurement": "CREATINE PHOSPHOKINASE", "setting": "120 h, time 5 day", "value": 399, "unit": "u/L"},
      {"measurement": "CREATININE", "setting": "120 h, time 5 day", "value": 0.21, "unit": "mg/dL"},
      {"measurement": "GLUCOSE", "setting": "120 h, time 5 day", "value": 158.33, "unit": "mg/dL"},
      {"measurement": "LACTATE DEHYDROGENASE", "setting": "120 h, time 5 day", "value": 716.33, "unit": "u/L"},
      {"measurement": "LIPASE", "setting": "120 h, time 5 day", "value": 8.33, "unit": "u/L"},
      {"measurement": "PHOSPHORUS", "setting": "120 h, time 5 day", "value": 11.8, "unit": "mg/dL"},
      {"measurement": "POTASSIUM", "setting": "120 h, time 5 day", "value": 5.72, "unit": "MEQ/L"},
      {"measurement": "SODIUM", "setting": "120 h, time 5 day", "value": 145.1, "unit": "MEQ/L"},
      {"measurement": "TOTAL BILIRUBIN", "setting": "120 h, time 5 day", "value": 0.13, "unit": "mg/dL"},
      {"measurement": "TOTAL PROTEIN", "setting": "120 h, time 5 day", "value": 5.9, "unit": "G/DL"},
      {"measurement": "URIC ACID", "setting": "120 h, time 5 day", "value": 1.3, "unit": "mg/dL"}
    ]}
  ]
}
